US12703850B2, “Photostabilized compositions and a method for stabilizing photosensitive components” (Evonik Operations GmbH, priority 2022, dated 2026)
Where a SMILES comes first, the peptide text is derived from it.

Columns and labels:
Assay type in all cases: physicochemical
[1] = Brown colorization of tryptophan solutions exposed to day light (absorbance at 330 nm), Example 1; settings: room temperature; for Effect on brown colorization of Trp solution / Effect on brown colorization compared with Tyr: day light; for Effect on brown colorization of Trp solution: 14 days; for Effect on brown colorization compared with Tyr: 0.5 mM Tyr-dipeptide versus 0.5 mM Tyr
Method: Aqueous solutions of 2.5 mM L-Tryptophan (Trp) and 0.013 mM riboflavin were prepared in phosphate-buffered saline (D-PBS) as well as in Minimal Essential Medium (MEM). These solutions were used to dissolve the dipeptides L-alanyl-L-tyrosine dihydrate (Ala-Tyr) and glycyl-L-tyrosine dihydrate (Gly-Tyr) as well as the amino acids L-tyrosine (Tyr), L-alanine (Ala), and glycine (Gly) at several concentrations to create solvent mixtures. […] PBS and MEM as well as 2.5 mM Trp dissolved in PBS and MEM were used as controls.
The intensity of the brown color was measured as absorbance difference at 330 nm.

[2] = Brown color index of solutions with 0.013 mM riboflavin exposed to day light, Example 2; settings: for Brown colorization after exposure (in words): 2 mM, any type of aqueous solution used; for Brown color index in cell culture media (MEM) Day 7 / Brown color index in cell culture media (MEM) Day 0 / Brown color index in PBS Day 7 / Brown color index in PBS Day 0: with 0.013 mM riboflavin; for Brown color index in cell culture media (MEM) Day 7 / Brown color index in PBS Day 7: 7 days day light; for Color after exposure (in words): amino acid up to 32 mM, 7 days
Method: Aqueous solutions of 2.5 mM L-Tryptophan (Trp) and 0.013 mM riboflavin were prepared in phosphate-buffered saline (D-PBS) as well as in Minimal Essential Medium (MEM). These solutions were used to dissolve the dipeptides L-alanyl-L-tyrosine dihydrate (Ala-Tyr) and glycyl-L-tyrosine dihydrate (Gly-Tyr) as well as the amino acids L-tyrosine (Tyr), L-alanine (Ala), and glycine (Gly) at several concentrations to create solvent mixtures. In example 1, the dipeptides were tested at concentrations of 0.5 mM, 2.5 mM and 10 mM and Tyr at a concentration of 0.5 mM. PBS and MEM as well as 2.5 mM Trp dissolved in PBS and MEM were used as controls. In example 2, the dipeptides and Tyr were tested at a concentration of 2 mM, Ala and Gly at 32 mM, and the solvent (PBS or MEM) was used as control (“solvent background”).
(§1) The samples were exposed to electromagnetic radiation (day light) at room temperature for seven (example 2) as well as 14 days (example 1). A relative quantification of the brown color of the samples of example 1 was obtained by measuring the absorbance at 330 nm. The intensity of the brown color of samples of example 2 was determined by eye using a brown color index.
Aqueous solutions of PBS or MEM containing 0.013 mM riboflavin show a week fluorescent yellow-green color. Exposure to electromagnetic radiation at room temperature for seven days results in a brown colorization of the MEM solution, while the yellow-green color in PBS solutions vanished.

[3] = Brown color index of solutions without riboflavin exposed to day light, Example 2; settings: for Brown color index in cell culture media (MEM) Day 7 / Brown color index in cell culture media (MEM) Day 0 / Brown color index in PBS Day 7 / Brown color index in PBS Day 0: without 0.013 mM riboflavin; for Brown color index in cell culture media (MEM) Day 7 / Brown color index in PBS Day 7: 7 days day light; for Brown color index in cell culture media (MEM) Day 7 / Brown color index in PBS Day 7 / Color after exposure (in words): room temperature; for Color after exposure (in words): amino acid up to 32 mM, 7 days electromagnetic radiation
Method: […] These solutions were used to dissolve the dipeptides L-alanyl-L-tyrosine dihydrate (Ala-Tyr) and glycyl-L-tyrosine dihydrate (Gly-Tyr) as well as the amino acids L-tyrosine (Tyr), L-alanine (Ala), and glycine (Gly) at several concentrations to create solvent mixtures. In example 1, the dipeptides were tested at concentrations of 0.5 mM, 2.5 mM and 10 mM and Tyr at a concentration of 0.5 mM. PBS and MEM as well as 2.5 mM Trp dissolved in PBS and MEM were used as controls. In example 2, the dipeptides and Tyr were tested at a concentration of 2 mM, Ala and Gly at 32 mM, and the solvent (PBS or MEM) was used as control (“solvent background”).
as §1
Other control solutions of PBS and MEM without riboflavin were colorless at day 0.

[4] = addition of 0.5 mM to 2.5 mM Trp in PBS or MEM, absorbance at 330 nm
[5] = 7 days electromagnetic radiation, room temperature
[6] = dipeptide concentrations of up to 10 mM, 2.5 mM Trp in PBS or MEM

Row | SMILES | Effect on brown colorization of Trp solution [1, 4] | Brown colorization after exposure (in words) [2, 5] | Brown color index in cell culture media (MEM) Day 7 ([2]; sample 2 mM, room temperature) | Brown color index in cell culture media (MEM) Day 0 ([2]; sample 2 mM) | Brown color index in PBS Day 7 ([2]; sample 2 mM, room temperature) | Brown color index in PBS Day 0 ([2]; sample 2 mM) | Brown color index in cell culture media (MEM) Day 7 ([3]; sample 32 mM) | Brown color index in cell culture media (MEM) Day 0 ([3]; sample 32 mM) | Brown color index in PBS Day 7 ([3]; sample 32 mM) | Brown color index in PBS Day 0 ([3]; sample 32 mM) | other results
1 | N[C@@H](Cc1ccc(O)cc1)C(=O)O [Tyr, L-tyrosine] | reduce this colorization | strong brown | 5 (strong brown color) | 0 (no brown color) | 5 (strong brown color) | 0 (no brown color) |  |  |  |  | Brown color index in cell culture media (MEM) Day 7 ([3]; sample 2 mM): 2 (moderate brown color); Brown color index in cell culture media (MEM) Day 0 ([3]; sample 2 mM): 0 (no brown color); Brown color index in PBS Day 7 ([3]; sample 2 mM): 0 (no brown color); Brown color index in PBS Day 0 ([3]; sample 2 mM): 0 (no brown color)
2 | C[C@H](N)C(=O)N[C@@H](Cc1ccc(O)cc1)C(=O)O.O.O [Ala-Tyr, L-alanyl-L-tyrosine dihydrate] (H-Ala-Tyr-OH) | reduce this colorization | normal brown color | 3 | 0 (no brown color) | 3 | 0 (no brown color) | 1 (week brown color) | 0 (no brown color) | 0 (no brown color) | 0 (no brown color) | Effect on brown colorization compared with Tyr ([1]; 2.5 mM Trp in PBS or MEM): the effect is greater; Effect on brown colorization of Trp solution [1, 6]: further reduction or even completely prevented the change in color
3 | NCC(=O)N[C@@H](Cc1ccc(O)cc1)C(=O)O.O.O [Gly-Tyr, glycyl-L-tyrosine dihydrate] (H-Gly-Tyr-OH) | reduce this colorization | normal brown color | 3 | 0 (no brown color) | 3 | 0 (no brown color) | 1 (week brown color) | 0 (no brown color) | 0 (no brown color) | 0 (no brown color) | Effect on brown colorization compared with Tyr ([1]; 2.5 mM Trp in PBS or MEM): the effect is greater; Effect on brown colorization of Trp solution [1, 6]: further reduction or even completely prevented the change in color
4 | NCC(=O)O [Gly, glycine] |  |  |  |  |  |  | 1 (week brown color) | 0 (no brown color) | 0 (no brown color) | 0 (no brown color) | Color after exposure (in words) ([2]; MEM with 0.013 mM riboflavin): normal brown; Color after exposure (in words) ([2]; PBS with 0.013 mM riboflavin): stayed colorless; Brown color index in cell culture media (MEM) Day 7 ([2]; sample 32 mM, room temperature): 3; Brown color index in cell culture media (MEM) Day 0 ([2]; sample 32 mM): 0 (no brown color); Brown color index in PBS Day 7 ([2]; sample 32 mM, room temperature): 0 (no brown color); Brown color index in PBS Day 0 ([2]; sample 32 mM): 0 (no brown color); Color after exposure (in words) ([3]; MEM without riboflavin): week brown; Color after exposure (in words) ([3]; PBS without riboflavin): stayed colorless
5 | C[C@H](N)C(=O)O [Ala, L-alanine] |  |  |  |  |  |  | 1 (week brown color) | 0 (no brown color) | 0 (no brown color) | 0 (no brown color) | Color after exposure (in words) ([2]; MEM with 0.013 mM riboflavin): normal brown; Color after exposure (in words) ([2]; PBS with 0.013 mM riboflavin): stayed colorless; Brown color index in cell culture media (MEM) Day 7 ([2]; sample 32 mM, room temperature): 3; Brown color index in cell culture media (MEM) Day 0 ([2]; sample 32 mM): 0 (no brown color); Brown color index in PBS Day 7 ([2]; sample 32 mM, room temperature): 0 (no brown color); Brown color index in PBS Day 0 ([2]; sample 32 mM): 0 (no brown color); Color after exposure (in words) ([3]; MEM without riboflavin): week brown; Color after exposure (in words) ([3]; PBS without riboflavin): stayed colorless
6 | Cc1cc2nc3c(=O)[nH]c(=O)nc-3n(C[C@H](O)[C@H](O)[C@H](O)CO)c2cc1C [riboflavin, (−)-Riboflavin] |  |  |  |  |  |  |  |  |  |  | Intensity of brown color (brown color index, in words) ([2]; 0.013 mM riboflavin alone in MEM, 7 days electromagnetic radiation, room temperature): normal brown color; Yellow-green color after exposure ([2]; 0.013 mM riboflavin alone in PBS, 7 days electromagnetic radiation, room temperature): vanished
7 | N[C@@H](Cc1c[nH]c2ccccc12)C(=O)O [Trp, L-Tryptophan] |  |  |  |  |  |  |  |  |  |  | Color change on exposure to electromagnetic radiation ([1]; 2.5 mM Trp alone in PBS or MEM): strong color change towards brown color
